Values of other authors in article PMC2831206 (Journal of medicinal chemistry, 2010).
pIC50: −log10 of the molar value.

What was measured:
PDE9A = conditions: read-out: IC50 with PDE9A
learning and memory = conditions: rodents

pIC50 (PDE9A)	SMILES	effect on learning and memory (learning and memory)
< 3.70	CC(C)Cn1c(=O)n(C)c(=O)c2nc[nH]c21 [IBMX, 3-isobutyl-1-methylxanthine]	–
–	C[C@H](Cc1nc2c(cnn2-c2ccccc2Cl)c(=O)[nH]1)C(F)(F)F [compound 1, 1-(2-chlorophenyl)-6-(3,3,3-trifluoro-2-methylpropyl)-1H-pyrazolo[3,4-d]pyrimidine-4(5H)-one]	ability to improve learning and memory in rodents
